According to paper PMC12090182, “Repurposing of the RIPK1-Selective Benzo[1,4]oxazepin-4-one Scaffold for the Development of a Type III LIMK1/2 Inhibitor” (ACS Chemical Biology, 2025):
Like-named read-outs stand apart in the source and are kept apart here.

Key:
Experiment in all cases: biochemical
Format in all cases: binding
[1] = target: 468 kinases including some pathogenic mutants (Homo sapiens, UniProt Q9P1W9); details: PIM2 (Entrez PIM2), 100 nM; read-out: Percent Control
[2] = target: 468 kinases including some pathogenic mutants (Homo sapiens, UniProt Q16566); details: CAMK4 (Entrez CAMK4), 100 nM; read-out: Percent Control
468 kinases including some pathogenic mutants (Homo sapiens, UniProt Q16566), sequence (Q16566 whole entry, change not shown): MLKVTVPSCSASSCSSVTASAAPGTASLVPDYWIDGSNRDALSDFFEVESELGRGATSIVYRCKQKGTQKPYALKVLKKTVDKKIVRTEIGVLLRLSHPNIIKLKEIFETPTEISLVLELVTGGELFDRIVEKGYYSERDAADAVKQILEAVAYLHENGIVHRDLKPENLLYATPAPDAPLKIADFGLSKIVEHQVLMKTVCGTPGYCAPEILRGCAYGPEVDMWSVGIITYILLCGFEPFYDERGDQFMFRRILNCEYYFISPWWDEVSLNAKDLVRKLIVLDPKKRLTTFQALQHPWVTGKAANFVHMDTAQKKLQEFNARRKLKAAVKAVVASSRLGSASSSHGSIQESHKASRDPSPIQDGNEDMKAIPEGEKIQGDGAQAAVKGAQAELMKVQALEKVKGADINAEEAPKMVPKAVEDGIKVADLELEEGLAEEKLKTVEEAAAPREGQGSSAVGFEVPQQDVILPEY

[3] = target: 468 kinases including some pathogenic mutants (Homo sapiens, UniProt Q04912); details: MST1R (Entrez MST1R), 100 nM; read-out: Percent Control
[4] = target: 468 kinases including some pathogenic mutants (Homo sapiens, UniProt P36897); details: TGFBR1 (Entrez TGFBR1), 1000 nM; read-out: Percent Control
[5] = target: 468 kinases including some pathogenic mutants (Homo sapiens, UniProt Q00526); details: CDK3 (Entrez CDK3), 100 nM; read-out: Percent Control
[6] = target: 468 kinases including some pathogenic mutants (Homo sapiens, UniProt P00533, G719C); details: read-out: Percent Control
[7] = target: 468 kinases including some pathogenic mutants (Homo sapiens, UniProt P53355); details: DAPK1 (Entrez DAPK1), 100 nM; read-out: Percent Control
[8] = target: 468 kinases including some pathogenic mutants (Homo sapiens, UniProt Q9UKI8); details: TLK1 (Entrez TLK1), 1000 nM; read-out: Percent Control
[9] = target: 468 kinases including some pathogenic mutants (Homo sapiens, UniProt O15264); details: p38-delta (Entrez MAPK13), 1000 nM; read-out: Percent Control
[10] = target: 468 kinases including some pathogenic mutants (Homo sapiens, UniProt P36507); details: MEK2 (Entrez MAP2K2), 1000 nM; read-out: Percent Control
[11] = target: 468 kinases including some pathogenic mutants (Homo sapiens, UniProt P20794); details: MAK (Entrez MAK), 1000 nM; read-out: Percent Control
[12] = target: 468 kinases including some pathogenic mutants (Homo sapiens, UniProt P36896); details: ACVR1B (Entrez ACVR1B), 100 nM; read-out: Percent Control
[13] = target: 468 kinases including some pathogenic mutants (Homo sapiens, UniProt Q8N752); details: CSNK1A1L (Entrez CSNK1A1L), 100 nM; read-out: Percent Control
468 kinases including some pathogenic mutants (Homo sapiens, UniProt Q8N752), sequence (Q8N752 whole entry, stated change not applied): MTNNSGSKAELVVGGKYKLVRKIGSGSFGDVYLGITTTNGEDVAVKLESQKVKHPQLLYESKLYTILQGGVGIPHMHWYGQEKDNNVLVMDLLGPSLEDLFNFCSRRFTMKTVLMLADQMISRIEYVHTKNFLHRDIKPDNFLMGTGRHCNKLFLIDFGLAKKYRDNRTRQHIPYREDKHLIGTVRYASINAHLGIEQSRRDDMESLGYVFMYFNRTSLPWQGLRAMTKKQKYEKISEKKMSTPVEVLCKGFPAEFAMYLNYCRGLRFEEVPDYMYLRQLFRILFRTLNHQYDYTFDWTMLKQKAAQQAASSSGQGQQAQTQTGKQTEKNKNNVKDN

[14] = target: 468 kinases including some pathogenic mutants (Homo sapiens, UniProt P06213); details: INSR (Entrez INSR), 100 nM; read-out: Percent Control
[15] = target: 468 kinases including some pathogenic mutants (Homo sapiens, UniProt P45985); details: MEK4 (Entrez MAP2K4), 1000 nM; read-out: Percent Control
[16] = target: 468 kinases including some pathogenic mutants (Homo sapiens, UniProt Q9NWZ3); details: IRAK4 (Entrez IRAK4), 1000 nM; read-out: Percent Control
[17] = target: 468 kinases including some pathogenic mutants (Homo sapiens, UniProt P08631); details: HCK (Entrez HCK), 100 nM; read-out: Percent Control
[18] = target: 468 kinases including some pathogenic mutants (Homo sapiens, UniProt O60674); details: JAK2(JH1domain-catalytic) (Entrez JAK2), 1000 nM; read-out: Percent Control
[19] = target: 468 kinases including some pathogenic mutants (Homo sapiens, UniProt P21127); details: CDC2L1 (Entrez CDK11B), 100 nM; read-out: Percent Control
468 kinases including some pathogenic mutants (Homo sapiens, UniProt P21127), sequence (P21127 whole entry, change not shown): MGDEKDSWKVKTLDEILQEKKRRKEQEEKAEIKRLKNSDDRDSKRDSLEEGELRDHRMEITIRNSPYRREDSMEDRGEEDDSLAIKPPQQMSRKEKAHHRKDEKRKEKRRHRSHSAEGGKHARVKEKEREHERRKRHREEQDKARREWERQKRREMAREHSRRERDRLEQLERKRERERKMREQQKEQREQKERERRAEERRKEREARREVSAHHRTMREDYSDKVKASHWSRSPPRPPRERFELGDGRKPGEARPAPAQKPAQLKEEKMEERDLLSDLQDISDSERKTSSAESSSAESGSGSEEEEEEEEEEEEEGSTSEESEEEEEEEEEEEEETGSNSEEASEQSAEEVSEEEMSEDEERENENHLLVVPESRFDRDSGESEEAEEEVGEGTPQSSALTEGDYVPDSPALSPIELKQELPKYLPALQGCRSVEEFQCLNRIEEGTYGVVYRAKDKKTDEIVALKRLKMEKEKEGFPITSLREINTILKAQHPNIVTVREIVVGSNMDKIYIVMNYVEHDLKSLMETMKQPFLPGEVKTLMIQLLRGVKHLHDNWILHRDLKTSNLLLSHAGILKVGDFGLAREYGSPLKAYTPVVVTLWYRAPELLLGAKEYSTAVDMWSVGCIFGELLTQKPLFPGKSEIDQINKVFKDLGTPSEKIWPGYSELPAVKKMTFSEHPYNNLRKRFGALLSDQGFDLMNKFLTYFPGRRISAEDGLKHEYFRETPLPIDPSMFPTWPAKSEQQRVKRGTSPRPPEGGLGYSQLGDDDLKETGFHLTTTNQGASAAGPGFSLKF

[20] = target: 468 kinases including some pathogenic mutants (Homo sapiens, UniProt Q04759); details: PRKCQ (Entrez PRKCQ), 100 nM; read-out: Percent Control
468 kinases including some pathogenic mutants (Homo sapiens, UniProt Q04759), sequence (Q04759 whole entry, change not shown): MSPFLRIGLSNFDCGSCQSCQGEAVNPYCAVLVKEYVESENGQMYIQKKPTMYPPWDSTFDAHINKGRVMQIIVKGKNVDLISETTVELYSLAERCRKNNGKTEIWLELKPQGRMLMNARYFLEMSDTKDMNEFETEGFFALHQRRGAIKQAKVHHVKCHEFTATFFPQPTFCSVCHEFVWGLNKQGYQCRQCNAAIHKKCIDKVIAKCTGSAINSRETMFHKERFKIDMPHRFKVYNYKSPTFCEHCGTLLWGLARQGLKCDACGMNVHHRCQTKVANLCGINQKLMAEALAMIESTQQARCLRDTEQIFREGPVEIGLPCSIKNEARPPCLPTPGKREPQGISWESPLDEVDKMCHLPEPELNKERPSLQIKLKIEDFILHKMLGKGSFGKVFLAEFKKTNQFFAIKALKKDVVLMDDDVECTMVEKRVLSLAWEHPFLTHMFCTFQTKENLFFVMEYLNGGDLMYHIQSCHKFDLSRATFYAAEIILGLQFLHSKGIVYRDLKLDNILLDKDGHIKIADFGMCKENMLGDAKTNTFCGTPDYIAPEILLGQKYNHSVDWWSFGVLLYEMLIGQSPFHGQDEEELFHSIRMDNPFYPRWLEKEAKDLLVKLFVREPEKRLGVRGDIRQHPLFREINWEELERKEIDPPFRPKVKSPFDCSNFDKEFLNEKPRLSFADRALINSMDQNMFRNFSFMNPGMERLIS

[21] = target: 468 kinases including some pathogenic mutants (Homo sapiens, UniProt P36894); details: BMPR1A (Entrez BMPR1A), 100 nM; read-out: Percent Control
[22] = target: 468 kinases including some pathogenic mutants (Homo sapiens, UniProt P00533, DEL746-750); details: read-out: Percent Control
[23] = target: 468 kinases including some pathogenic mutants (Homo sapiens, UniProt Q9Y6R4); details: MAP3K4 (Entrez MAP3K4), 100 nM; read-out: Percent Control
[24] = target: 468 kinases including some pathogenic mutants (Homo sapiens, UniProt Q8NE63); details: HIPK4 (Entrez HIPK4), 100 nM; read-out: Percent Control
468 kinases including some pathogenic mutants (Homo sapiens, UniProt Q8NE63), sequence (Q8NE63 whole entry, change not shown): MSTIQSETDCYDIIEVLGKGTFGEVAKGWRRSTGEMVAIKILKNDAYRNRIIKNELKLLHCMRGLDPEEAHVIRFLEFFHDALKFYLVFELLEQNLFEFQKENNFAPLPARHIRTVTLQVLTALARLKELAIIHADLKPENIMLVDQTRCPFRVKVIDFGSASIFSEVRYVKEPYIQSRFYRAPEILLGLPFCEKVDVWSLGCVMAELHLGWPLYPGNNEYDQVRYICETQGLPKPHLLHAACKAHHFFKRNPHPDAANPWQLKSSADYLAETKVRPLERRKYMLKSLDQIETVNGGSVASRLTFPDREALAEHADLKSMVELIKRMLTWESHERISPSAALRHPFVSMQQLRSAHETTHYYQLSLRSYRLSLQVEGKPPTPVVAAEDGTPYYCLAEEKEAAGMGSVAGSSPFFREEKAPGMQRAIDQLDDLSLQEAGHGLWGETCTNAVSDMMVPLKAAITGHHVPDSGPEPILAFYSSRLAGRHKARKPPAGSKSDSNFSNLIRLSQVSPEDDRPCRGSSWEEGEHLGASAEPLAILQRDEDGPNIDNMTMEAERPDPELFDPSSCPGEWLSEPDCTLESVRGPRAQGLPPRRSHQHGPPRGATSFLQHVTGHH

[25] = target: 468 kinases including some pathogenic mutants (Homo sapiens, UniProt O75385); details: ULK1 (Entrez ULK1), 1000 nM; read-out: Percent Control
468 kinases including some pathogenic mutants (Homo sapiens, UniProt O75385), sequence (O75385 whole entry, change not shown): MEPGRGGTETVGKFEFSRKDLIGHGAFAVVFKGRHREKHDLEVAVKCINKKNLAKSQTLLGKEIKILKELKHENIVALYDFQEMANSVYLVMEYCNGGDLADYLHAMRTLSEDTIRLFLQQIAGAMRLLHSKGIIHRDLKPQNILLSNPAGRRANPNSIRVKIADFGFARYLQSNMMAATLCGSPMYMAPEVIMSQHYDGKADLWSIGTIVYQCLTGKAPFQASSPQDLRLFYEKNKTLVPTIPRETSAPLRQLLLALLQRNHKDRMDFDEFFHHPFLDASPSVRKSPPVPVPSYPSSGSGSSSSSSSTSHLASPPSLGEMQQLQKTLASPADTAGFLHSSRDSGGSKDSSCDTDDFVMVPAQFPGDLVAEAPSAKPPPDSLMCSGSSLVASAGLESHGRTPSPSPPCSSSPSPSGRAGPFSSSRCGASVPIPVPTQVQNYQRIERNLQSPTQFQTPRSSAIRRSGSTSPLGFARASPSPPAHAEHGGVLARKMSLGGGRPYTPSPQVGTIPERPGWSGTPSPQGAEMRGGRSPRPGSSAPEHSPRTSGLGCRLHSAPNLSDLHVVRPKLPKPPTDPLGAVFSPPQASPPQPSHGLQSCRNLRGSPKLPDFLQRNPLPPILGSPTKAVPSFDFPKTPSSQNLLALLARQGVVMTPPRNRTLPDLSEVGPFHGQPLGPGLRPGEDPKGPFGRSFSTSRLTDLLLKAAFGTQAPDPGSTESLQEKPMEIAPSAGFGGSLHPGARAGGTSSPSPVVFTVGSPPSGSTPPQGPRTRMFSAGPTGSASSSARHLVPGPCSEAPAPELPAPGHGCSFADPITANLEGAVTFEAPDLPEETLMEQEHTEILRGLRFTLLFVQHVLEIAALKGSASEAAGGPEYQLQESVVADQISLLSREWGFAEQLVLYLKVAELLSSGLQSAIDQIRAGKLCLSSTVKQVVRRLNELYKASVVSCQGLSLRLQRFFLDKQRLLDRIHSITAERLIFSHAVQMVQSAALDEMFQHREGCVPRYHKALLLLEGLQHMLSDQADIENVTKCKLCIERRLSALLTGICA

[26] = target: 468 kinases including some pathogenic mutants (Homo sapiens, UniProt O60331); details: PIP5K1C (Entrez PIP5K1C), 1000 nM; read-out: Percent Control
[27] = target: 468 kinases including some pathogenic mutants (Homo sapiens, UniProt Q13237); details: PRKG2 (Entrez PRKG2), 100 nM; read-out: Percent Control
[28] = target: 468 kinases including some pathogenic mutants (Homo sapiens, UniProt O75582); details: 1000 nM, read-out: Percent Control
468 kinases including some pathogenic mutants (Homo sapiens, UniProt O75582), sequence (O75582 whole entry, change not shown): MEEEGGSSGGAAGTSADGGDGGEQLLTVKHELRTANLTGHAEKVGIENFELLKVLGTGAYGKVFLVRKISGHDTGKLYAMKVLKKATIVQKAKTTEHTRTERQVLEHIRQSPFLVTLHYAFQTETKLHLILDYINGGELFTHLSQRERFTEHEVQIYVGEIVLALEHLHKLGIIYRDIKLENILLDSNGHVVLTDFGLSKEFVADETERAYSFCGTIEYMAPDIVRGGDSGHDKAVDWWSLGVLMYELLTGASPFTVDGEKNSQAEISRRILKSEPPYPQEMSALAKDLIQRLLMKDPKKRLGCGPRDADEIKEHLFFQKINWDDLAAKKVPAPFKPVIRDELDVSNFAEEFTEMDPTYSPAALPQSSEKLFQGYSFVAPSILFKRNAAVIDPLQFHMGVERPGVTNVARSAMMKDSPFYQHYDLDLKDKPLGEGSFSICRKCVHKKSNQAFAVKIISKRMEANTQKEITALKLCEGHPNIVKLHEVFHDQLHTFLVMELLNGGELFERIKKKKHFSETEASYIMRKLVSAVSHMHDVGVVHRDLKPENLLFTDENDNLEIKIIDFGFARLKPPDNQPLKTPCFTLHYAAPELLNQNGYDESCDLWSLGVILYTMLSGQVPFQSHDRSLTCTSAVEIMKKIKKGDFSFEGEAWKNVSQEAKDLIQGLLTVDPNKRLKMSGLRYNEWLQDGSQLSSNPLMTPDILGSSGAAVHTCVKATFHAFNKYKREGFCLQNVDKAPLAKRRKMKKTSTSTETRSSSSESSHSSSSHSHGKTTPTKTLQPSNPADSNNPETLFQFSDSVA

`CN1C(=O)[C@@H](N2CCc3c(nn(Cc4ccccc4)c3C(N)=O)C2=O)COc2cc(Cl)ccc21` [Compound 10, (S)-2-benzyl-6-(8-chloro-5-methyl-4-oxo-2,3,4,5-tetrahydrobenzo[b][1,4]oxazepin-3-yl)-7-oxo-4,5,6,7-tetrahydro-2H-pyrazolo[3,4-c]pyridine-3-carboxamide] showed a remaining activity at 0.1 µM [1] of 83%, a remaining activity at 0.1 µM [2] of 76% and a remaining activity at 0.1 µM [3] of 82%. It also gave a remaining activity at 1 µM [4] of 100%, a remaining activity at 0.1 µM [5] of 80% and a remaining activity at 0.1 µM [6] of 100%. The remaining activity at 0.1 µM [7] was 93%, the remaining activity at 1 µM [8] was 100% and the remaining activity at 1 µM [9] was 100%. The remaining activity at 1 µM [10] was 100%, the remaining activity at 1 µM [11] was 100% and the remaining activity at 0.1 µM [12] was 89%. For the same compound, the remaining activity at 0.1 µM [13] was 86%, the remaining activity at 0.1 µM [14] was 100% and the remaining activity at 1 µM [15] was 100%. The remaining activity at 1 µM [16] was 100%, the remaining activity at 0.1 µM [17] was 61% and the remaining activity at 1 µM [18] was 100%. It also gave a remaining activity at 0.1 µM [19] of 88%, a remaining activity at 0.1 µM [20] of 88% and a remaining activity at 0.1 µM [21] of 78%. The remaining activity at 0.1 µM [22] was 78%, the remaining activity at 0.1 µM [23] was 79% and the remaining activity at 0.1 µM [24] was 73%. For the same compound, the remaining activity at 1 µM [25] was 100%, the remaining activity at 1 µM [26] was 100% and the remaining activity at 0.1 µM [27] was 77%. It also gave a remaining activity at 1 µM ([28]; RPS6KA5(Kin.Dom.1-N-terminal) (Entrez RPS6KA5)) of 100% and a remaining activity at 1 µM ([28]; RPS6KA5(Kin.Dom.2-C-terminal) (Entrez RPS6KA5)) of 100%.
